Results as given in patent publication US20230129258A1, “HETEROTANDEM BICYCLIC PEPTIDE COMPLEXES” (BicycleTx Limited, priority 2019, published 2023).
Starred links: 1 amine or outer side, 2 acyl side, 3 side chain; linkers in the order of their positions; H or OH if unused. Positions of bridges follow the written chain, without caps; N, C: chain ends. Non-standard residues stand in square brackets, D forms with d. Chains are numbered I, II in the order given. X1 = O=C(CCOCCOCCOCCN(CCOCCOCCOCCn1cc(CCC(=O)[*:2])nn1)CCOCCOCCOCCn1cc(CCC(=O)[*:3])nn1)[*:1]; TATA = O=C(CC[*:1])N1CN(C(=O)CC[*:2])CN(C(=O)CC[*:3])C1; d1Nal = N[C@H](Cc1cccc2ccccc12)C(=O)O; Hyp = O=C(O)[C@@H]1C[C@@H](O)CN1; hArg = N=C(N)NCCCC[C@H](N)C(=O)O; tBuAla = CC(C)(C)C[C@H](N)C(=O)O; Nle = CCCC[C@H](N)C(=O)O

Columns and labels:
[1] = Pharmacokinetics in SD rats; assay type: in vivo; conditions: for half-life: iv
Outline: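 Male SD rats received the heterotandem Bicycle complex IV bolus or 15-min IV infusion in 25 mM histidine HCl, 10% sucrose pH 7. Serial K2-EDTA plasma analysed by LC-MS/MS (Orbitrap, positive mode); parameters from non-compartmental analysis.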

[2] = Pharmacokinetics in cynomolgus monkey; assay type: in vivo; conditions: plasma
Method: Serial bleeding (about 1.2 ml blood/time point) was performed from a peripheral vessel from restrained, non-sedated animals at each time point into a commercially available tube containing Potassium (K2) EDTA*2H2O (0.85-1.15 mg) on wet ice and processed for plasma. Samples were centrifuged (3,000×g for 10 minutes at 2 to 8° C.) immediately after collection. 0.1 mL plasma was transferred into labelled polypropylene micro-centrifuge tubes. 5-fold of the precipitant including internal standard 100 ng/mL Labetalol & 100 ng/mL dexamethasone & 100 ng/mL tolbutamide & 100 ng/mL Verapamil & 100 ng/mL Glyburide & 100 ng/mL Celecoxib in MeOH was immediately added into the plasma, mixed well and centrifuged at 12,000 rpm for 10 minutes at 2 to 8° C. Samples of supernatant were transferred into the pre-labeled polypropylene microcentrifuge tubes, and frozen over dry ice. The samples were stored at −60° C. or below until LC-MS/MS analysis. An aliquot of 40 μL calibration standard, quality control, single blank and double blank samples were added to the 1.5 mL tube. Each sample (except the double blank) was quenched with 200 μL IS1 respectively (double blank sample was quenched with 200 μL MeOH with 0.5% tritonX-100), and then the mixture was vortex-mixed well (at least 15 s) with vortexer and centrifuged for 15 min at 12000 g, 4° C. A 10 μL supernatant was injected for LC-MS/MS analysis using an Orbitrap Q Exactive in positive ion mode to determine the concentrations of analyte. Plasma concentration versus time data were analyzed by non-compartmental approaches using the Phoenix WinNonlin 6.3 software program. C0, CI, Vdss, T½, AUC(0-last), AUC(0-inf), MRT(0-last), MRT(0-inf) and graphs of plasma concentration versus time profile were reported.

[3] = Pharmacokinetics in CD1 mice; assay type: in vivo, CD-1 mice
Method: Serial bleeding (about 80 μL blood/time point) was performed via submandibular or saphenous vein at each time point. All blood samples were immediately transferred into prechilled microcentrifuge tubes containing 2 μL K2-EDTA (0.5M) as anti-coagulant and placed on wet ice. Blood samples were immediately processed for plasma by centrifugation at approximately 4° C., 3000 g. The precipitant including internal standard was immediately added into the plasma, mixed well and centrifuged at 12,000 rpm, 4° C. for 10 minutes. The supernatant was transferred into pre-labeled polypropylene microcentrifuge tubes, and then quick-frozen over dry ice. The samples were stored at […] or below as needed until analysis. 7.5 μL of the supernatant samples were directly injected for LC-MS/MS analysis using an Orbitrap Q Exactive in positive ion mode to determine the concentrations of analyte. Plasma concentration versus time data were analyzed by non-compartmental approaches using the Phoenix WinNonlin 6.3 software program. C0, CI, Vdss, T½, AUC(0-last), AUC(0-inf), MRT(0-last), MRT(0-inf) and graphs of plasma concentration versus time profile were reported.

CCCC[C@@H]1NC(=O)[C@H](Cc2ccc(O)cc2)NC(=O)[C@@H]2CCCN2C(=O)[C@H](CC(=O)O)NC(=O)[C@H](C)NC(=O)[C@H](Cc2ccccc2)NC(=O)[C@@H]2CSCCC(=O)N3CN(CN(C3)C(=O)CCSC[C@@H](C(=O)N[C@@H](C)C(N)=O)NC1=O)C(=O)CCSC[C@H](NC(C)=O)C(=O)N[C@@H](CC(C)(C)C)C(=O)N1CCC[C@H]1C(=O)N[C@@H](CCC(=O)O)C(=O)N[C@H](CCCCNC(=O)CCc1cn(CCOCCOCCOCCN(CCOCCOCCOCCC(=O)N[C@H]3CSCCC(=O)N4CN5CN(C4)C(=O)CCSC[C@H](NC(=O)[C@@H](CC(=O)O)NC(=O)[C@H](Cc4cccc6ccccc46)NC(=O)[C@@H]4CCCN4C3=O)C(=O)N[C@@H](CCSC)C(=O)N[C@@H](CCCCNC(=N)N)C(=O)N[C@@H](CC(=O)O)C(=O)N[C@@H](Cc3c[nH]c4ccccc34)C(=O)N[C@@H](CO)C(=O)N[C@@H]([C@@H](C)O)C(=O)N3CCC[C@H]3C(=O)N3C[C@H](O)C[C@H]3C(=O)N[C@@H](Cc3c[nH]c4ccccc34)C(=O)N[C@H](C(N)=O)CSCCC5=O)CCOCCOCCOCCn3cc(CCC(=O)NCCCC[C@H]4NC(=O)[C@H](CCC(=O)O)NC(=O)[C@@H]5CCCN5C(=O)[C@H](CC(C)(C)C)NC(=O)[C@@H](NC(C)=O)CSCCC(=O)N5CN6CN(C5)C(=O)CCSC[C@H](NC(=O)[C@H](Cc5ccc(O)cc5)NC(=O)[C@@H]5CCCN5C4=O)C(=O)N[C@@H](Cc4ccccc4)C(=O)N[C@@H](C)C(=O)N[C@@H](CC(=O)O)C(=O)N4CCC[C@H]4C(=O)N[C@@H](Cc4ccc(O)cc4)C(=O)N[C@@H](CCCC)C(=O)N[C@H](C(=O)N[C@@H](C)C(N)=O)CSCCC6=O)nn3)nn1)C(=O)N1CCC[C@H]1C(=O)N[C@@H](Cc1ccc(O)cc1)C(=O)N2 [BCY11863]
Clp ([1]; 100 mg/kg BCY11863 IV): 13 mL/min/kg | Vdss ([1]; 100 mg/kg BCY11863 IV): 2.3 L/kg | fraction metabolized to BCY15155 ([1]; IV administration of BCY11863, 100 mg/kg): < 1% | bioavailability from SC dosing ([1]; SC dosing): high | clearance (in words) ([1]; Table 6B): low clearance molecule | volume of distribution (in words) ([1]; Table 6B): volume of distribution larger than plasma volume | conversion to BCY14602 ([1]; first 24 h, IV BCY11863, 100 mg/kg): No significant conversion | half-life ([1]; male, SD, rat, plasma, 2 mg/kg, 2 mg/kg IV, n=3, read-out: terminal half life (converted)): 4.1 h | clearance ([1]; male, SD, rat, plasma, 2 mg/kg IV, n=3, read-out: clearance): 7.7 mL/min/kg | Vd ([1]; male, SD, rat, plasma, 2 mg/kg IV, n=3, read-out: volume of distribution at steady state (Vdss)): 1.6 L/kg | clearance ([1]; male, rat, plasma, SD rats, 1.9 mg/kg IV Bolus, read-out: Clp): 7.7 mL/min/kg | Vd ([1]; male, rat, plasma, SD rats, 1.9 mg/kg IV Bolus, read-out: Vdss): 1.6 L/kg | clearance ([1]; male, rat, plasma, SD rats, 3.2 mg/kg IV Inf (15 min), read-out: Clp): 9.3 mL/min/kg | Vd ([1]; male, rat, plasma, SD rats, 3.2 mg/kg IV Inf (15 min), read-out: Vdss): 1.3 L/kg | bioavailability ([1]; male, rat, plasma, SD rats, 6.3 mg/kg SC): 95% | Vd ([2]; 0.93 mg/kg IV infusion (30 min), read-out: Vdss): 0.62 L/kg | clearance ([2]; 0.97 mg/kg IV infusion (15 min), read-out: Clp): 4.8 mL/min/kg | half-life ([2]; 0.97 mg/kg IV infusion (15 min), read-out: T1/2 (converted)): 4.5 h | Vd ([2]; 0.97 mg/kg IV infusion (15 min), read-out: Vdss): 0.91 L/kg | Vd ([2]; 1 mg/kg IV infusion, n=2, read-out: volume of distribution at steady state (Vdss)): 0.62 L/kg | clearance ([2]; 9.4 mg/kg IV infusion (15 min), read-out: Clp): 3.9 mL/min/kg | half-life ([2]; 9.4 mg/kg IV infusion (15 min), read-out: T1/2 (converted)): 8.9 h | Vd ([2]; 9.4 mg/kg IV infusion (15 min), read-out: Vdss): 1.1 L/kg | bioavailability from IP dosing ([3]; IP dosing): high | clearance (in words) ([3]; IV study): low clearance molecule | volume of distribution (in words) ([3]; IV study): volume of distribution larger than plasma volume | half-life ([3]; male, CD-1, mouse, plasma, 15 mg/kg, mice, after IP injection, read-out: circulating plasma half-life (converted)): 2.5 h | clearance ([3]; male, mouse, plasma, CD-1 mice, 0.96 mg/kg IV Bolus, read-out: Clp): 21 mL/min/kg | half-life ([3]; male, mouse, plasma, CD-1 mice, 0.96 mg/kg IV Bolus, read-out: T½ (converted)): 1.7 h | Vd ([3]; male, mouse, plasma, CD-1 mice, 0.96 mg/kg IV Bolus, read-out: Vdss): 2.9 L/kg | clearance ([3]; male, mouse, plasma, CD-1 mice, 5.6 mg/kg IV Bolus, read-out: Clp): 9.7 mL/min/kg | half-life ([3]; male, mouse, plasma, CD-1 mice, 5.6 mg/kg IV Bolus, read-out: T½ (converted)): 2.6 h | Vd ([3]; male, mouse, plasma, CD-1 mice, 5.6 mg/kg IV Bolus, read-out: Vdss): 1.6 L/kg | clearance ([3]; male, mouse, plasma, CD-1 mice, 12 mg/kg IV Bolus, read-out: Clp): 17 mL/min/kg | half-life ([3]; male, mouse, plasma, CD-1 mice, 12 mg/kg IV Bolus, read-out: T½ (converted)): 2.6 h | Vd ([3]; male, mouse, plasma, CD-1 mice, 12 mg/kg IV Bolus, read-out: Vdss): 2.5 L/kg | bioavailability ([3]; male, mouse, plasma, CD-1 mice, 15.5 mg/kg IP): 100% | half-life ([3]; male, mouse, plasma, CD-1 mice, 15.5 mg/kg IP, read-out: T½ (converted)): 2.5 h | half-life ([3]; male, mouse, plasma, CD-1 mice, 32 mg/kg IV Bolus, read-out: T½ (converted)): 2.4 h | Vd ([3]; male, mouse, plasma, CD-1 mice, 32 mg/kg IV Bolus, read-out: Vdss): 2.1 L/kg

I: A[hArg]DC[Hyp]LVNPLCLEP[d1Nal]WTC-NH2 / II: Ac-C[tBuAla]PE[dK]PYCFADPY[Nle]CA-NH2 / III: Ac-C[tBuAla]PE[dK]PYCFADPY[Nle]CA-NH2 (linker I:4-I:11-I:18, II:1-II:8-II:15, III:1-III:8-III:15 via TATA; linker I:N-II:5-III:5 via X1) [BCY13272]
terminal half life ([1]; 3.6 mg/kg IV infusion (15 min), n=3): 2.9 h | half-life ([1]; male, SD, rat, plasma, 3.6 mg/kg, 3.6 mg/kg IV infusion (15 min), n=3, read-out: terminal half life (converted)): 2.5 h | half-life ([1]; male, SD, rat, plasma, IV Inf (15 minutes), read-out: T1/2 (converted)): 2.5 h | clearance ([1]; male, SD, rat, plasma, 3.6 mg/kg IV infusion (15 min), n=3, read-out: clearance): 7.5 mL/min/kg | Vd ([1]; male, SD, rat, plasma, 3.6 mg/kg IV infusion (15 min), n=3, read-out: volume of distribution at steady state (Vdss)): 1 L/kg | Vd ([1]; male, SD, rat, plasma, IV Inf (15 minutes), read-out: Vdss): 1 L/kg | clearance ([2]; 9.2 mg/kg IV infusion (15 min), read-out: clearance): 4.1 mL/min/kg | Vd ([2]; 9.2 mg/kg IV infusion (15 min), read-out: volume of distribution at steady state (Vdss)): 0.82 L/kg | half-life ([2]; IV infusion (15 min), 9.2 mg/kg, read-out: T1/2 (converted)): 8.9 h | half-life ([2]; IV infusion (15 min), dose 9.2 mg/kg, 8.9 mg/kg, read-out: terminal half life (converted)): 8.9 h | clearance ([3]; male, CD-1, mouse, plasma, 5.5 mg/kg IV, n=3, read-out: Clearance): 7.5 mL/min/kg | half-life ([3]; male, CD-1, mouse, plasma, 5.5 mg/kg IV, n=3, read-out: terminal plasma half life (converted)): 2.9 h | Vd ([3]; male, CD-1, mouse, plasma, 5.5 mg/kg IV, n=3, read-out: volume of distribution (Vdss)): 1.1 L/kg
